This is an account of results in PubChem BioAssay (NCI).

Test systems include TK-10 renal; OVCAR-5 ovarian; SK-MEL-5 melanoma; LOX IMVI melanoma; SF-295 CNS; SF-268 CNS; KM12 colon; HOP-62 NSCLC; OVCAR-4 ovarian.
Assay in all cases: DTP human tumour cell line panel, 48 h

Broadly, the TGI is the concentration at which net growth stops. A low value points to more potent growth arrest. In general, GI50 refers to the concentration that inhibits growth by half.

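1) Cells in 96-well plates. 2) Compound, 48 h, 5 concentrations. 3) Linear interpolation between surrounding doses. 4) Unreached endpoint = highest concentration. GI50 marks 50% less growth. Definition used: TGI = concentration required for complete inhibition of growth.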

As for `CC1(C)CC(=O)C(/C(=N/NC(=S)NN)C(=O)Nc2nc3ccc([N+](=O)[O-])cc3s2)C(=O)C1`, the TGI in the assay on TK-10 renal, in the assay with OVCAR-5 ovarian, in the assay with SK-MEL-5 melanoma, with LOX IMVI melanoma, in the assay on SF-295 CNS and in the assay on SF-268 CNS was more than 100 µM each time. The TGI in the assay on KM12 colon, in the assay with HOP-62 NSCLC and with OVCAR-4 ovarian was more than 100 µM throughout.

On to `COC(=O)[C@@]1(C(C)CC(=O)O)CCCCC1=O` (stereo not given in full), for which the TGI in the assay on TK-10 renal, in the assay on OVCAR-5 ovarian, in the assay on SK-MEL-5 melanoma, in the assay on LOX IMVI melanoma, with SF-295 CNS and in the assay with SF-268 CNS was more than 100 µM throughout. For the same compound, the TGI with KM12 colon, in the assay on HOP-62 NSCLC and in the assay with OVCAR-4 ovarian was more than 100 µM each time.

`O=C(c1nc2ccccc2[nH]c1=O)C(O)c1ccccc1` (stereo not given): the TGI in the assay on TK-10 renal, with OVCAR-5 ovarian, with SK-MEL-5 melanoma, in the assay with LOX IMVI melanoma, with SF-295 CNS and in the assay with SF-268 CNS was more than 100 µM in each case. Moreover, the TGI in the assay with KM12 colon, in the assay on HOP-62 NSCLC and in the assay on OVCAR-4 ovarian was more than 100 µM each time.

For the compound `NC(=O)c1csc(C2OC(COP(=O)(O)CP(=O)(O)OCC3OC(n4cnc5c(N)ncnc54)C(O)C3O)C(O)C2O)n1` (stereo not given), the TGI in the assay with TK-10 renal, in the assay with OVCAR-5 ovarian, in the assay with SK-MEL-5 melanoma, in the assay with LOX IMVI melanoma, in the assay on SF-295 CNS and in the assay with SF-268 CNS was more than 100 µM each time. Moreover, the TGI in the assay with KM12 colon, in the assay on HOP-62 NSCLC and in the assay with OVCAR-4 ovarian was more than 100 µM each time.

On to `COc1ccc(-c2cc(C(=O)Nc3ccc(C)c(C)c3)nc(NC#N)n2)cc1`, for which the TGI in the assay with TK-10 renal, in the assay on OVCAR-5 ovarian, in the assay on SK-MEL-5 melanoma, in the assay with LOX IMVI melanoma, with SF-268 CNS and with KM12 colon was more than 100 µM throughout. Besides, in the assay on OVCAR-4 ovarian, the TGI is more than 100 µM.

`CCCCC1(C)C=C/C(=C2/C(=O)O/C(=C\C(=O)O)C2=O)O1` (stereo not given): the TGI in the assay on TK-10 renal, in the assay with OVCAR-5 ovarian, with SK-MEL-5 melanoma, in the assay on LOX IMVI melanoma, in the assay with SF-295 CNS and with KM12 colon was more than 100 µM in each case. The TGI in the assay with HOP-62 NSCLC and with OVCAR-4 ovarian was more than 100 µM in each case.

For `Cc1ccc(C)c(N2C(=O)C(=O)C(c3nc4ccccc4s3)/C(=N/NC(=O)NN)C2=O)c1` (stereo not given), the TGI in the assay with TK-10 renal, in the assay with SK-MEL-5 melanoma, in the assay with SF-295 CNS, in the assay with SF-268 CNS, in the assay on KM12 colon and in the assay with HOP-62 NSCLC was more than 100 µM each time. Further, in the assay with OVCAR-4 ovarian, the TGI is more than 100 µM.

Regarding `CC1(c2ccccc2Cl)C(C#N)C(=O)NC(=O)C1C#N` (stereo not given), the TGI was more than 100 µM with TK-10 renal; more than 100 µM in the assay with OVCAR-5 ovarian; 74.2 µM with SK-MEL-5 melanoma; more than 100 µM with LOX IMVI melanoma; more than 100 µM with SF-295 CNS; more than 100 µM in the assay on SF-268 CNS. The TGI with HOP-62 NSCLC and with OVCAR-4 ovarian was more than 100 µM throughout.

For `C=C1CCC2[C@@H](CCC3[C@]2(C)CCC[C@]3(C)C(=O)OC)C1CC=O` (stereo not given in full), the GI50 with TK-10 renal is 13.2 µM; in the assay on OVCAR-5 ovarian, 16.7 µM; in the assay on SF-295 CNS, 16.8 µM; in the assay on KM12 colon, 18.7 µM; in the assay with HOP-62 NSCLC it was 21.2 µM. Besides, the TGI in the assay on TK-10 renal came to 26.6 µM; with OVCAR-5 ovarian, 31.8 µM; with SK-MEL-5 melanoma, 33.9 µM; in the assay with SF-295 CNS, 31.3 µM; in the assay with SF-268 CNS, 35.1 µM; with KM12 colon it was 36.6 µM. Moreover, the values for the TGI with HOP-62 NSCLC and in the assay with OVCAR-4 ovarian were 39.8 µM and 32 µM, respectively.

For `COCOCC/C=C/C=O`, the TGI in the assay on TK-10 renal, in the assay on OVCAR-5 ovarian, in the assay with SK-MEL-5 melanoma, in the assay on LOX IMVI melanoma, with SF-295 CNS and in the assay on SF-268 CNS was more than 100 µM in each case. This compound also came in with a TGI with KM12 colon of more than 100 µM.

Regarding `COCCNC(=O)C1C(=O)C(=O)N(CCOC)C1=O` (stereo not given), the TGI in the assay with TK-10 renal, with OVCAR-5 ovarian, in the assay on SK-MEL-5 melanoma, with LOX IMVI melanoma, in the assay on SF-295 CNS and in the assay on SF-268 CNS was more than 100 µM each time. The TGI in the assay on HOP-62 NSCLC and in the assay with OVCAR-4 ovarian was more than 100 µM throughout.

Take `CC12CCC(=O)N1c1ccc([N+](=O)[O-])cc1N2` (stereo not given): the TGI in the assay on SK-MEL-5 melanoma, in the assay on LOX IMVI melanoma, with SF-295 CNS, in the assay on SF-268 CNS, in the assay with KM12 colon and with HOP-62 NSCLC was more than 100 µM throughout. This compound showed a TGI with OVCAR-4 ovarian of more than 100 µM.

Turning to `Cc1ccc(S(=O)(=O)N/N=C(/CC(=O)c2c(C)n([O-])c3ccccc3[n+]2=O)C(=O)Nc2ccccc2C)cc1`, the TGI in the assay on OVCAR-5 ovarian, in the assay on SF-295 CNS, with SF-268 CNS, with KM12 colon, in the assay on HOP-62 NSCLC and in the assay with OVCAR-4 ovarian was more than 100 µM throughout.

As for `O=C(O)/C=C/c1nc2ccccc2c(=O)o1`, the TGI in the assay on TK-10 renal, in the assay with SK-MEL-5 melanoma, in the assay with LOX IMVI melanoma, with SF-295 CNS, in the assay with KM12 colon and in the assay on OVCAR-4 ovarian was more than 100 µM in each case.

Turning to `N#Cc1ccc(C=NC23CC4CC(CC(C4)C2)C3)cc1`, the TGI in the assay with TK-10 renal, in the assay on OVCAR-5 ovarian, in the assay on LOX IMVI melanoma, in the assay with SF-295 CNS, in the assay with SF-268 CNS and in the assay with KM12 colon was more than 100 µM throughout. The TGI in the assay on HOP-62 NSCLC and in the assay on OVCAR-4 ovarian was more than 100 µM in each case.

Take `Cc1ccc(NC(=O)CC2C(=O)Nc3ccccc3S2(=O)=O)c(C)c1` (stereo not given): the TGI with TK-10 renal is 55 µM; in the assay on OVCAR-5 ovarian it was 46.9 µM; with SK-MEL-5 melanoma, 19.5 µM; with LOX IMVI melanoma it was 29 µM; in the assay on SF-295 CNS, 50.2 µM; in the assay on SF-268 CNS, 39.6 µM. The same compound gave a TGI in the assay on OVCAR-4 ovarian of 41.2 µM.

`CCOC(=O)/C(C#N)=C(O)/C(=C\c1ccc(Br)cc1)NC(=O)c1ccccc1`: the TGI in the assay on TK-10 renal, in the assay with OVCAR-5 ovarian, with SK-MEL-5 melanoma, with SF-295 CNS, with SF-268 CNS and in the assay on KM12 colon was more than 100 µM each time. For the same compound, the TGI with HOP-62 NSCLC and in the assay on OVCAR-4 ovarian was more than 100 µM in each case.

Turning to `N#CC(c1ccccn1)c1nc2ccccc2[nH]1` (stereo not given), the TGI in the assay on TK-10 renal, with OVCAR-5 ovarian, in the assay on SK-MEL-5 melanoma, in the assay with SF-295 CNS, in the assay on SF-268 CNS and in the assay on HOP-62 NSCLC was more than 100 µM in each case. In the assay on OVCAR-4 ovarian, this compound gave a TGI of more than 100 µM.

On to `COc1cc2c(cc1OC)-c1ncc3c(OC)c(OC)c(OC)cc3c1C2`, for which the GI50 in the assay on TK-10 renal was 18.9 µM; with OVCAR-5 ovarian, 26.6 µM; in the assay with SK-MEL-5 melanoma it was 23.5 µM; in the assay with SF-295 CNS it was 25.8 µM; in the assay on SF-268 CNS it was 4.97 µM; with KM12 colon, 33.8 µM. Moreover, the GI50 with HOP-62 NSCLC is 16 µM; with OVCAR-4 ovarian, 96.5 µM. For the same compound, the TGI in the assay on TK-10 renal was 50.4 µM; with OVCAR-5 ovarian it was more than 100 µM; in the assay on SK-MEL-5 melanoma, more than 100 µM; with SF-295 CNS, more than 100 µM; with SF-268 CNS it was 16.5 µM; in the assay with KM12 colon, more than 100 µM. Moreover, the results for the TGI in the assay on HOP-62 NSCLC and in the assay on OVCAR-4 ovarian were 29.4 µM and more than 100 µM, respectively.

Take `C=CNC(=O)NC(=O)CSc1nnc(-c2ccccc2NC(=O)C(F)(F)F)c(=O)[nH]1`: the TGI was more than 100 µM with TK-10 renal; more than 100 µM in the assay on OVCAR-5 ovarian; 2.06 µM with SK-MEL-5 melanoma; more than 100 µM in the assay on LOX IMVI melanoma; more than 100 µM with SF-295 CNS; more than 100 µM with SF-268 CNS. Moreover, the TGI with KM12 colon and in the assay on HOP-62 NSCLC was more than 100 µM in each case.

For the compound `O=S(=O)(/C=C/C(=C/c1ccccc1)S(=O)(=O)c1ccccc1)c1ccccc1`, the TGI with TK-10 renal is 3.24 µM; with LOX IMVI melanoma, 2.08 µM; in the assay with SF-295 CNS, 3.05 µM; in the assay on SF-268 CNS, 4.1 µM; in the assay with KM12 colon, 5.42 µM; in the assay on HOP-62 NSCLC, 3.5 µM. Further, in the assay with OVCAR-4 ovarian, the TGI is 3.07 µM.

For `NC(=O)C(=O)C1CCC2=C(Sc3ccccc3N2)C1=O` (stereo not given), the TGI in the assay on TK-10 renal, in the assay with OVCAR-5 ovarian, with SK-MEL-5 melanoma, in the assay with LOX IMVI melanoma, with SF-268 CNS and in the assay with KM12 colon was more than 100 µM throughout. The TGI in the assay on HOP-62 NSCLC and with OVCAR-4 ovarian was more than 100 µM in each case.

In the case of `Cc1ccccc1NC(=O)C(=O)C(C#N)c1ccccc1C` (stereo not given), the TGI in the assay with TK-10 renal is more than 100 µM; with OVCAR-5 ovarian, more than 100 µM; in the assay with SK-MEL-5 melanoma, more than 100 µM; with LOX IMVI melanoma it was 39.4 µM; in the assay with SF-295 CNS it was more than 100 µM; with SF-268 CNS, more than 100 µM. The TGI with KM12 colon and in the assay on HOP-62 NSCLC was more than 100 µM each time.
